What was measured:
[1] = molecular target: T1, human SGLT2 (Homo sapiens, UniProt P31639); assay: Methyl-α-D-[U-14C]glucopyranoside uptake assay, cells stably expressing human SGLT2; assay type: cell-based; conditions: HEK293.ETN cells expressing human SGLT2, 1.5 h incubation
T1 construct: A full-length cDNA clone expressing human SGLT2 (GenScript Corporation) was subcloned
T1 sequence (P31639 1-672): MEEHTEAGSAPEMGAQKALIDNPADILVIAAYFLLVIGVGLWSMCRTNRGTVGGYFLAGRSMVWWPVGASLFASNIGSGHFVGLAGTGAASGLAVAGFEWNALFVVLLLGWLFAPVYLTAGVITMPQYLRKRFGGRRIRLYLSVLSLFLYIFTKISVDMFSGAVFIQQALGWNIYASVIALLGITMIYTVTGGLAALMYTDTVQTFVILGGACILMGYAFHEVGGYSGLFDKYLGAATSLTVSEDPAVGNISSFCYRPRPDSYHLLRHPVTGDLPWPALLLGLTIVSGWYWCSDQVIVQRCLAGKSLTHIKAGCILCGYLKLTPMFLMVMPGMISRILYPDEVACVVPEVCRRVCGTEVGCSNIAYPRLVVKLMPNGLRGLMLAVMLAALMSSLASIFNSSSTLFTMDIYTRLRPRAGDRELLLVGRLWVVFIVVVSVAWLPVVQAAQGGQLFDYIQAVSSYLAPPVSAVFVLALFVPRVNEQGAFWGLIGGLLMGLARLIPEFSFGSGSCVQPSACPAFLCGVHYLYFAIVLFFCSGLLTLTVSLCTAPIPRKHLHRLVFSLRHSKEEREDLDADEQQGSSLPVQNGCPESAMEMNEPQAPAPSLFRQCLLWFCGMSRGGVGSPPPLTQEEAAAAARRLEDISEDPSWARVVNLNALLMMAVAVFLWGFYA
Source text: A full-length cDNA clone expressing human SGLT2 (GenScript Corporation) was subcloned into […] and Not I sites of pEAK15 expression vector. Clones harboring the cDNA inserts were identified by restriction analysis.
Plasmid containing human SGLT2 was linearized with Nsi I and purified by agarose gel electrophoresis. Using Lipofectamine 2000 Transfection Reagent (Invitrogen Corporation), DNA was transfected into HEK293.ETN cells and cultured in Dulbecco's Modified Eagle Medium (DMEM) containing 10% fetal bovine serum (FBS) at 37° C. under 5% CO2 for 24 h. Transfectants were selected in the same growth medium supplemented with puromycin (Invitrogen Corporation) for two weeks. Puromycin-resistant cells were recovered and seeded on a fresh 96-well plate (single cell per well) and cultured in the presence of puromycin until cells became confluent. Puromycin-resistant clones were evaluated for SGLT2 activity in the methyl-α-D-[U-^14C]glucopyranoside uptake assay described below.
(§1) Cells expressing SGLT1 or SGLT2 were seeded on 96-well ScintiPlate scintillating plates (PerkinElmer, Inc.) in DMEM containing 10% FBS (1×10^5 cells per well in 100 μL medium) incubated at 37° C. under 5% CO2 for 48 h prior to the assay. Cells were washed twice with 150 μL of either sodium buffer (137 mM NaCl, 5.4 mM KCl, 2.8 mM CaCl2, 1.2 mM MgCl2, 10 mM tris(hydroxymethyl)aminomethane/N2-hydroxyethylpiperazine-N′-ethanesulfonic acid [Tris/Hepes], pH 7.2) or sodium-free buffer (137 mM N-methyl-glucamine, 5.4 mM KCl, 2.8 mM CaCl2, 1.2 mM MgCl2, 10 mM Tris/Hepes, pH 7.2). Test compound in 50 μL each of sodium or sodium-free buffer containing 40 μCi/L methyl-α-D-[U-^14C]glucopyranoside (Amersham Biosciences/GE Healthcare), either with (symbols in parentheses) or without (symbols without parentheses) 25% human serum, was added per well of a 96-well plate and incubated at 37° C. with shaking for either 2 h (SGLT1 assay) or 1.5 h (SGLT2 assay). Cells were washed twice with 150 μL of wash buffer (137 mM N-methylglucamine, 10 mM Tris/Hepes, pH 7.2) and methyl-α-D-[U-^14C]glucopyranoside uptake was quantitated using a TopCount scintillation counter (PerkinElmer, Inc.). Sodium-dependent glucopyranoside uptake was measured by subtracting the values obtained with sodium-free buffer from those obtained using sodium buffer (average of triplicate determinations).

[2] = molecular target: T2, human SGLT1 (Homo sapiens, UniProt P13866); assay: Methyl-α-D-[U-14C]glucopyranoside uptake assay, COS-7 cells expressing human SGLT1; assay type: cell-based; conditions: COS-7 cells expressing human SGLT1, 2 h incubation
T2 construct: Full-length human SGLT1 cDNA on pDream2.1 expression vector was obtained from GenScript Corporation; host or cells: COS-7 cells (American Type Culture Collection)
T2 sequence (P13866 1-664): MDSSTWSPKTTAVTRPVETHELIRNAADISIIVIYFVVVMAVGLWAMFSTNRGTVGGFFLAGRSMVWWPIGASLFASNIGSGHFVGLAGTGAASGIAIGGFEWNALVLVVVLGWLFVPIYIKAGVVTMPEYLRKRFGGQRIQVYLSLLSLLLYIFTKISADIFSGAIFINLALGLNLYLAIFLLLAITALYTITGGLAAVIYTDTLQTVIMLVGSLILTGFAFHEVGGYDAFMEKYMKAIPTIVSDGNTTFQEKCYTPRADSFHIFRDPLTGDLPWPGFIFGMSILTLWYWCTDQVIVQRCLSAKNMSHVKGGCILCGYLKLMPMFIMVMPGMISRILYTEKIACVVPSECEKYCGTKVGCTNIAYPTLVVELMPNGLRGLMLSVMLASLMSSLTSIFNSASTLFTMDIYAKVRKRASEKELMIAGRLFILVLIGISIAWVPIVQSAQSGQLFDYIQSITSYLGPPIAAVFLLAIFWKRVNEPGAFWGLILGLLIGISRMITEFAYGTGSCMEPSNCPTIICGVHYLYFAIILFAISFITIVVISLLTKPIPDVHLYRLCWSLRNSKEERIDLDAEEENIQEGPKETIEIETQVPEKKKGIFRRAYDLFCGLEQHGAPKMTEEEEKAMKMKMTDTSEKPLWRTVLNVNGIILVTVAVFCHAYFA
Description: Full-length human SGLT1 cDNA on pDream2.1 expression vector was obtained from GenScript Corporation and propagated in Escherichia coli strain DH5α using Luria-Bertani (LB) medium containing ampicillin. Plasmid DNA was isolated using the QIAGEN Plasmid Midi Kit (QIAGEN Inc.). […] Transfected cells were stored in DMEM containing 10% dimethyl sulfoxide (DMSO) at −80° C.
as §1

[3] = with 25% human serum (symbols in parentheses)
[4] = without human serum (symbols without parentheses)

Row | Structure (SMILES) | IC50 [1, 3] [nM] | IC50 [2, 3] [nM] | IC50 [1, 4] [nM] | IC50 [2, 4] [nM]
1 | CC#CCOCCOc1cc(Cl)c(Cc2ccc(CC)cc2)cc1[C@@H]1O[C@H](CO)[C@@H](O)[C@H](O)[C@H]1O [Compound BF, (2S,3R,4R,5S,6R)-2-(2-(2-(but-2-ynyloxy)ethoxy)-4-chloro-5-(4-ethylbenzyl)phenyl)-6-(hydroxymethyl)tetrahydro-2H-pyran-3,4,5-triol] | < 1000 | > 10000 |  | 
2 | CCc1ccc(Cc2cc([C@@H]3O[C@H](CO)[C@@H](O)[C@H](O)[C@H]3O)c(OCCOC3CCCC3)cc2Cl)cc1 [Compound BG, (2S,3R,4R,5S,6R)-2-(4-chloro-2-(2-(cyclopentyloxy)ethoxy)-5-(4-ethylbenzyl)phenyl)-6-(hydroxymethyl)tetrahydro-2H-pyran-3,4,5-triol] | < 1000 | > 10000 |  | 
3 | CC#CCOCc1cc(Cl)c(Cc2ccc(OCC)cc2)cc1[C@@H]1O[C@H](CO)[C@@H](O)[C@H](O)[C@H]1O [Compound AY, (2S,3R,4R,5S,6R)-2-(2-((but-2-ynyloxy)methyl)-4-chloro-5-(4-ethoxybenzyl)phenyl)-6-(hydroxymethyl)tetrahydro-2H-pyran-3,4,5-triol] |  |  | < 1000 | > 10000
4 | C#CCOCc1cc(Cl)c(Cc2ccc(OCC)cc2)cc1[C@@H]1O[C@H](CO)[C@@H](O)[C@H](O)[C@H]1O [Compound CC, (2S,3R,4R,5S,6R)-2-(4-chloro-5-(4-ethoxybenzyl)-2-((prop-2-ynyloxy)methyl)phenyl)-6-(hydroxymethyl)tetrahydro-2H-pyran-3,4,5-triol] | < 1000 | > 10000 |  | 
5 | CCc1ccc(Cc2cc([C@@H]3O[C@H](CO)[C@@H](O)[C@H](O)[C@H]3O)c(CCOCCO)cc2Cl)cc1 [Compound AG, (2S,3R,4R,5S,6R)-2-(4-chloro-5-(4-ethylbenzyl)-2-(2-(2-hydroxyethoxy)ethyl)phenyl)-6-(hydroxymethyl)tetrahydro-2H-pyran-3,4,5-triol] |  |  | < 1000 | 1000 to 10000
6 | C=CCOCCc1cc(Cl)c(Cc2ccc(CC)cc2)cc1[C@@H]1O[C@H](CO)[C@@H](O)[C@H](O)[C@H]1O [Compound AD, (2S,3R,4R,5S,6R)-2-(2-(2-(allyloxy)ethyl)-4-chloro-5-(4-ethylbenzyl)phenyl)-6-(hydroxymethyl)tetrahydro-2H-pyran-3,4,5-triol] |  |  | < 1000 | > 10000
7 | C=CCOCc1cc(Cl)c(Cc2ccc(OCC=C)cc2)cc1[C@@H]1O[C@H](CO)[C@@H](O)[C@H](O)[C@H]1O [Compound BB, (2S,3R,4R,5S,6R)-2-(5-(4-(allyloxy)benzyl)-2-(allyloxymethyl)-4-chlorophenyl)-6-(hydroxymethyl)tetrahydro-2H-pyran-3,4,5-triol] | < 1000 | > 10000 |  | 
8 | CCc1ccc(Cc2cc([C@@H]3O[C@H](CO)[C@@H](O)[C@H](O)[C@H]3O)c(OCCOCC(F)(F)F)cc2Cl)cc1 [Compound BS, (2S,3R,4R,5S,6R)-2-(4-chloro-5-(4-ethylbenzyl)-2-(2-(2,2,2-trifluoroethoxy)ethoxy)phenyl)-6-(hydroxymethyl)tetrahydro-2H-pyran-3,4,5-triol] | < 1000 | > 10000 |  | 
9 | CCc1ccc(Cc2cc([C@@H]3O[C@H](CO)[C@@H](O)[C@H](O)[C@H]3O)c(COCCOC)cc2Cl)cc1 [Compound S, (2S,3R,4R,5S,6R)-2-(4-chloro-5-(4-ethylbenzyl)-2-((2-methoxyethoxy)methyl)phenyl)-6-(hydroxymethyl)tetrahydro-2H-pyran-3,4,5-triol] |  |  | < 1000 | > 10000
10 | CCc1ccc(Cc2cc([C@@H]3O[C@H](CO)[C@@H](O)[C@H](O)[C@H]3O)c(COCC(C)F)cc2Cl)cc1 (stereo partly drawn) [Compound T, (2S,3R,4R,5S,6R)-2-(4-chloro-5-(4-ethylbenzyl)-2-((2-fluoropropoxy)methyl)phenyl)-6-(hydroxymethyl)tetrahydro-2H-pyran-3,4,5-triol] |  |  | < 1000 | 1000 to 10000
11 | CCc1ccc(Cc2cc([C@@H]3O[C@H](CO)[C@@H](O)[C@H](O)[C@H]3O)c(COCCCO)cc2Cl)cc1 [Compound AL, (2S,3R,4R,5S,6R)-2-(4-chloro-5-(4-ethylbenzyl)-2-((3-hydroxypropoxy)methyl)phenyl)-6-(hydroxymethyl)tetrahydro-2H-pyran-3,4,5-triol] |  |  | < 1000 | > 10000
12 | C#CCOCc1cc(Cl)c(Cc2ccc(CC)cc2)cc1[C@@H]1O[C@H](COC(C)=O)[C@@H](O)[C@H](O)[C@H]1O [Compound BD, ((2R,3S,4R,5R,6S)-6-(4-chloro-5-(4-ethylbenzyl)-2-((prop-2-ynyloxy)methyl)phenyl)-3,4,5-trihydroxytetrahydro-2H-pyran-2-yl)methyl acetate] |  |  | < 1000 | > 10000
13 | CCc1ccc(Cc2cc([C@@H]3O[C@H](CO)[C@@H](O)[C@H](O)[C@H]3O)c(COCCO)cc2Cl)cc1 [Compound O, (2S,3R,4R,5S,6R)-2-(4-chloro-5-(4-ethylbenzyl)-2-((2-hydroxyethoxy)methyl)phenyl)-6-(hydroxymethyl)tetrahydro-2H-pyran-3,4,5-triol] |  |  | < 1000 | 1000 to 10000
14 | CCc1ccc(Cc2cc([C@@H]3O[C@H](CO)[C@@H](O)[C@H](O)[C@H]3O)c(COCC(C)=O)cc2Cl)cc1 [Compound K, 1-(5-chloro-4-(4-ethylbenzyl)-2-((2S,3R,4R,5S,6R)-3,4,5-trihydroxy-6-(hydroxymethyl)tetrahydro-2H-pyran-2-yl)benzyloxy)propan-2-one] |  |  | < 1000 | > 10000
15 | CC#CCOCc1cc(Cl)c(Cc2ccc(O)cc2)cc1[C@@H]1O[C@H](CO)[C@@H](O)[C@H](O)[C@H]1O [Compound BC, (2S,3R,4R,5S,6R)-2-(2-((but-2-ynyloxy)methyl)-4-chloro-5-(4-hydroxybenzyl)phenyl)-6-(hydroxymethyl)tetrahydro-2H-pyran-3,4,5-triol] | < 1000 | > 10000 |  | 
